Test results: patent publication US20130190524A1, “CYCLITOLS AND THEIR DERIVATIVES AND THEIR THERAPEUTIC APPLICATIONS” (UNIVERSITE DE STRASBOURG, priority 2006, published 2013)

Tests used:
free hemoglobin (Hb) = target: T1, free hemoglobin (Hb) (Homo sapiens, UniProt P68871); test: P50 (oxygen equilibrium curve, Hemox Analyzer) on free hemoglobin; format: biochemical; details: blood matrix Hb, free hemoglobin 100 μM, pH 7.4, 37° C.; for P50: effector 2 mM (effector/Hb ratio 20), n=3; for P50 increase: versus P50 control, effector 2 mM
T1 construct: the cells were hemolysed by addition of 2 volumes of cold distilled water; tissue EFS-Alsace; host or cells: red blood cell concentrate, hemolysed, stroma removed, passed over Sephadex G-25
Procedure: (§1) Some of the compounds described herein were tested for P50 on free hemoglobin (Hb) as well as human whole blood (WB) as 120 mM solutions. The hemoglobin solution was prepared from red blood cells concentrate (EFS-Alsace) by washing three times with 1 volume of saline (1500×g, 10 min), the cells were hemolysed by addition of 2 volumes of cold distilled water. After centrifugation (7000×g, 30 min) for stroma removal, 5 ml of the clear hemoglobin solution were placed on a 2.5 cm×30 cm column of Sephadex G-25 equilibrated with 0.1 M sodium chloride+10^−5 M EDTA. The protein was eluted with the same solution at a rate of about 20 ml/h [Benesch, R.; Benesch, R. E. and Yu, C. I. Reciprocal binding of oxygen and diphosphoglycerate by human hemoglobin. Proc. Natl. Acad. Sci. USA (1968) 59, 526-532].
The allosteric modulation of the effectors was measured by the change in p50, the partial pressure of oxygen for half-saturation. myo-Inositol hexaphosphate (myo-1HP) was purchased from Sigma. Oxygen equilibrium curves (OEC) were carried out with the Hemox Analyzer (TCS Scientific Co.) under the following conditions: pH 7.4, 135 mM NaCl, 5 mM KCl and 30 mM TES (N-[tris(hydroxymethyl)methyl]-2-aminoethanesulfonic acid) buffer at 37° C. The concentration of free hemoglobin was 100 μM (577 nm, ε=58.4 mM^−1 cm^−1 per tetramer) and the final concentration of the allosteric effector in the cuvette was 2 mM resulting in an effector/Hb ratio of 20.

human whole blood (WB) = test: P50 (oxygen dissociation curve, Hemox Analyzer) on human whole blood; format: cell-based; details: blood matrix WB, 120 mM compound solution, 1:1 with whole blood; for P50: incubated two hours at 37° C., n=3; for P50 increase: versus P50 control, two hours at 37° C.
Procedure: as §1
Human blood was freshly withdrawn in heparinized tubes. The pH of the compound solutions was adjusted to approximately 7.0 and whole blood volumes at 1:1 ratios where incubated individually for two hours at 37° C. with the above compounds. Following, incubation, blood cells were washed 3 times with Bis-Tris-buffer. The measurement of oxygen dissociation curves was made in a Hemox-Analyzer instrument (TCS Scientific Corp.) A summary of P50 values for whole blood induced by the compounds is presented in Table 1.

T1 sequence (P68871 2-147 limits assumed): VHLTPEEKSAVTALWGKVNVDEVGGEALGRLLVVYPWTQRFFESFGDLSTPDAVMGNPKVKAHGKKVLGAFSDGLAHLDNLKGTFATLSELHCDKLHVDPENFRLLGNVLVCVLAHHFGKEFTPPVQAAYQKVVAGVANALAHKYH
T1 sequence (P69905 2-142 partner limits assumed): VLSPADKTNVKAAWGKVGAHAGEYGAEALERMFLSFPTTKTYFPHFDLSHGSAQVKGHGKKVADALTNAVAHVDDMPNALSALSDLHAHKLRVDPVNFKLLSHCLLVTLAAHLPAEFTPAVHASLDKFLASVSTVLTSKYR

## O[C@H]1[C@H](O)[C@@H](O)[C@H](O)[C@@H](O)[C@H]1O [myo-Inositol (Compound 7, Scheme 6)]
Free hemoglobin (Hb)
  P50: 27.43 ± 1.07 Torr
  P50 increase: 158%

## O=P(O)(O)O[C@H]1[C@H](OP(=O)(O)O)[C@@H](OP(=O)(O)O)[C@H](OP(=O)(O)O)[C@@H](OP(=O)(O)O)[C@H]1OP(=O)(O)O [myo-IHP, myo-Inositol hexaphosphate, reference compound]
Free hemoglobin (Hb)
  P50: 48.37 ± 3.71 Torr
  P50 increase: 282%

## Hexasodium scyllo-inositol 1,2:3,4:5,6-trispyrophosphate [scyllo-ITPP (Compound 4, Scheme 5)]
Free hemoglobin (Hb)
  P50: 23.02 ± 1.83 Torr
  P50 increase: 127%
Human whole blood (WB)
  P50: 34.10 ± 1.81 Torr
  P50 increase: 18%

## O[C@H]1[C@H](O)[C@@H](O)[C@H](O)[C@@H](O)[C@H]1O [myo-Inositol (Compound 5, Scheme 6)]
Free hemoglobin (Hb)
  P50: 27.25 ± 0.14 Torr
  P50 increase: 148%
Human whole blood (WB)
  P50: 35.53 ± 1.43 Torr
  P50 increase: 23%
